Reference: ChEMBL document CHEMBL5149990, “New Protocol-Guided Exploitation of a Lysosomal Sulfatase Inhibitor to Suppress Cell Growth in Glioblastoma Multiforme” (J Med Chem, 2021)
Calls of active or inactive are those of the source. No cut-off for these calls is given here.

Columns and labels:
Homo sapiens [1] = species: Homo sapiens; assay: Binding affinity to lysosome sulfatase (unknown origin) assessed as Km; format: subcellular
Homo sapiens [2] = species: Homo sapiens; assay: Binding affinity to lysosome sulfatase (unknown origin) assessed as Vmax; format: subcellular
Homo sapiens [3] = species: Homo sapiens; assay: Binding affinity to sulfatase in human liver S9 fraction; format: subcellular
T98G [4] = assay: Cytotoxicity against human T98G cells assessed as reduction in cell viability incubated for 4 hrs by MTT assay; format: toxicity, cell-based
[5] = Drug localization in lysosome of human T98G cells by Lyso-Tracker Red based confocal laser scanning microscopy; format: ADME, cell-based
T98G [6] = assay: Binding affinity to sulfatase in human T98G cells assessed as increase in fluorescence intensity at 40 uM by confocal fluorescence microscopic analysis; format: cell-based
[7] = Inhibition of lysosome sulfatase (unknown origin) assessed as reduction in fluorescence intensity using 2-(2-Morpholinoethyl)-6-(((2S,3R,4S,5S,6R)-3,4,5-trihydroxy-6-(hydroxymethyl)tetrahydro-2H-pyran-2-yl)oxy)-1H-benzo[de]-isoquinoline-1,3(2H)-dione as substrate incubated for 60 mins by fluorescence based analysis; format: subcellular, Homo sapiens
T98G [8] = assay: Binding affinity to sulfatase in human T98G cells assessed as reduction in fluorescence intensity at 125 uM in presence of 2-(2-Morpholinoethyl)-6-(((2S,3R,4S,5S,6R)-3,4,5-trihydroxy-6-(hydroxymethyl)tetrahydro-2H-pyran-2-yl)oxy)-1H-benzo[de]-isoquinoline-1,3(2H)-dione by confocal fluorescence microscopic analysis; format: cell-based
T98G [9] = assay: Cytotoxicity against human T98G cells assessed as reduction in cell viability at 3.5 to 350 uM incubated for 48 hrs by MTT assay relative to control; format: toxicity, cell-based; conditions: dose 3.5-350 µM

SMILES	Km (Homo sapiens [1])	Vmax (Homo sapiens [2])	Activity (Homo sapiens [3])	Activity (T98G [4])	Drug uptake [5]	Activity (T98G [6])	IC50 [7]	Activity (T98G [8])	Activity (T98G [9])
O=C1c2cccc3c(O[C@@H]4O[C@H](CO)[C@@H](O)[C@H](O)[C@H]4O)ccc(c23)C(=O)N1CCN1CCOCC1	21.6 µM	70.9 nmol/min/mg	Active	Non-Toxic	Active	Active			
CC1(C)[C@H](C(=O)O)N2C(=O)C[C@H]2S1(=O)=O [SULBACTAM]							3.5 µM	Active	34%
